The text below walks through data of patent US8211916B2, “N- and O-substituted 4-[2-(diphenylmethoxy)-ethyl]-1-[(phenyl)methyl]piperidine analogs and methods of treating CNS disorders therewith” (Wayne State University, priority 2000, dated 2012).

Data set [1] concerns the target T1, rat SERT (Rattus norvegicus, UniProt P31652).
T1 construct: from tissue; host or cells: rat striatum (membranes)
As to the kind of experiment: Rat SERT binding, [3H]citalopram, striatal membranes. The following applies: Table 1; read-out: SERT, IC50.
Protocol: (§1) Briefly, rat striatal membranes were incubated with radioligand and inhibitor for 2 h on ice in a sodium phosphate buffer at a final Na^+ concentration of 30 nM, pH 7.4, at room temperature. The assays were terminated by filtration through glass fiber filtermats (Wallac, Inc., Gaithersburg, Md.), presoaked in 0.05% (v/v) polyethyleneimine, with a MACH3-96 Tomtec harvester (Wallac, Inc.). Filters were assayed for radioactivity in a Microbeta Plus liquid scintillation counter (Wallac, Inc.).

Data set [2] concerns the target rat DAT (Rattus norvegicus, UniProt P23977). Briefly: Rat DAT binding, [3H]Win 35,428, striatal membranes. To be noted: read-out: DAT, IC50.
Protocol: as §1

Counter-ions that a name gives are not always drawn. Like-named read-outs stand apart in the source and are kept apart here.

Sequence of rat DAT (P23977 whole entry): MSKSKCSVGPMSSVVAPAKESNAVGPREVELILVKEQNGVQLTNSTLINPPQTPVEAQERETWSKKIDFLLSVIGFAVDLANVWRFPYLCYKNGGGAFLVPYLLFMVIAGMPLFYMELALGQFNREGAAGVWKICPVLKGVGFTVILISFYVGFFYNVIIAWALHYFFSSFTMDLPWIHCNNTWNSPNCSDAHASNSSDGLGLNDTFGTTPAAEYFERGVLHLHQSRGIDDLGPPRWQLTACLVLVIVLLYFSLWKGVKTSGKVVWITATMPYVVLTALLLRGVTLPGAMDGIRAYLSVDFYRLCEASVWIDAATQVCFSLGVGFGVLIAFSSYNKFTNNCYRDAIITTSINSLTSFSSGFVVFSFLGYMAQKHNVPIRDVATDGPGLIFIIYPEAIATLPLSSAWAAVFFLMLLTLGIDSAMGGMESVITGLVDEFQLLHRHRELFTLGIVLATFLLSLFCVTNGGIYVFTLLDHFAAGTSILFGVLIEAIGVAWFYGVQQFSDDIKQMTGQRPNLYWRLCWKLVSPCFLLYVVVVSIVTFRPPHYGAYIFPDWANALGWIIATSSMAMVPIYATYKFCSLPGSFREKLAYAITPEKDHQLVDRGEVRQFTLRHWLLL
T1 sequence (P31652 whole entry): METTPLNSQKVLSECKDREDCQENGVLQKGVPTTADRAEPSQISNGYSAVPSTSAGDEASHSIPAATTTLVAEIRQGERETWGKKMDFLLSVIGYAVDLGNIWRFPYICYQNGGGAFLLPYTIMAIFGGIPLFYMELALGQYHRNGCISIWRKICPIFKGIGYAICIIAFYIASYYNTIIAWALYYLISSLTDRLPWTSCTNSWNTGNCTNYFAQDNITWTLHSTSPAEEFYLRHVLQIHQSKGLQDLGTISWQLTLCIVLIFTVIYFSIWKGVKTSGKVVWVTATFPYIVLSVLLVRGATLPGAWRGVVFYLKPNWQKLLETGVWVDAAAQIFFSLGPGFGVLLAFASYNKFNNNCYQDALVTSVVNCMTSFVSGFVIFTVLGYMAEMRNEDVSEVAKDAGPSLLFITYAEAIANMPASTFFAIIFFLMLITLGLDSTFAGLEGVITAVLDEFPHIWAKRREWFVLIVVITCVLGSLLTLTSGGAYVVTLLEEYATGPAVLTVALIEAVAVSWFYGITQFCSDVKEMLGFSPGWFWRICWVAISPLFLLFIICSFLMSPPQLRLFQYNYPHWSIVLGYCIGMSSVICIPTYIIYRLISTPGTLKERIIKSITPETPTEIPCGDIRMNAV

Usually melting point stands for the temperature, or range, at which the solid turns liquid. As to `Fc1ccc(CN2CCC(CCNC(c3ccccc3)c3ccccc3)CC2)cc1F` (as salt: HCl) [Example 8, 4-[2-((Diphenylmethyl)amino)ethyl]-1-[(3,4-difluorophenyl)methyl]piperidine], the melting point is 280 to 281 °C.
The compound `Fc1ccc(CN2CCC(CNCC(c3ccccc3)c3ccccc3)CC2)cc1` (as salt: HCl) [Example 11, 4-[[2-(Diphenyl)ethyl]aminomethyl]-1-[(4-fluorophenyl)methyl]piperidine] gave a melting point of 126 to 127 °C.
As to `Fc1ccc(C(NCC2CCN(CCc3ccccc3)CC2)c2ccc(F)cc2)cc1` (as salt: HCl) [Example 12, 4-[(Bis(4-fluorophenyl)methylamino)methyl]-1-[2-(phenyl)ethyl]piperidine], the melting point fell in the range of 214 to 215 °C.
`Fc1cccc(CN2CCC(CCOC(c3ccccc3)c3ccccc3)CC2)c1` (as salt: oxalate) [Example 1, 4-[2-(Diphenylmethoxy)ethyl]-1-[(3-fluorophenyl)methyl]piperidine] gave a melting point of 150 to 151 °C.
For `Fc1ccc(CN2CCC(CCOC(c3ccccc3)c3ccccc3)CC2)cc1F` (as salt: oxalate) [Example 2, 4-[2-(Diphenylmethoxy)ethyl]-1-[(3,4-difluorophenyl)methyl]piperidine], the melting point fell in the range of 158 to 159 °C.
The same measure, in the same setting: then `N#Cc1ccc(CN2CCC(CCOC(c3ccccc3)c3ccccc3)CC2)cc1` (as salt: oxalate) [Example 4, 4-[2-(Diphenylmethoxy)ethyl]-1-[(4-cyanophenyl)methyl]piperidine], with 120 to 121 °C.
Turning to `CS(=O)(=O)Nc1ccc(CN2CCC(CCOC(c3ccccc3)c3ccccc3)CC2)cc1` (as salt: oxalate) [Example 6, 4-[2-(Diphenylmethoxy)ethyl]-1-[((4-methylsulfonylamino)phenyl)methyl]piperidine], the melting point fell in the range of 122 to 124 °C.
What is called IC50 is the point on the concentration scale where inhibition reaches its midpoint. On to `CC(OCCC1CCN(Cc2ccc(F)cc2)CC1)c1ccccc1` (centres unmarked) [4-[((1-phenylethoxy)ethyl]-1-[(4-fluorophenyl)methyl]piperidine], for which the IC50 in data set [1] was 5860 ± 595 nM; in data set [2] (Table 1), 751 ± 61.6 nM.
Turning to `Fc1cccc(CN2CCC(CCOC(c3ccccc3)c3ccccc3)CC2)c1` [Example 1, 4-[2-(Diphenylmethoxy)ethyl]-1-[(3-fluorophenyl)methyl]piperidine], the values for the IC50 in data set [1] and in data set [2] (Table 1) were 1150 ± 43.4 nM and 23.4 ± 3.8 nM, respectively.
Regarding `FC(F)(F)c1ccc(CN2CCC(CCOC(c3ccccc3)c3ccccc3)CC2)cc1` [Example 3, 4-[2-(Diphenylmethoxy)ethyl]-1-[((4-trifluoromethyl)phenyl)methyl]piperidine], the IC50 in data set [1] amounted to 2260 ± 144 nM; in data set [2], 32.1 ± 2.1 nM.
Regarding `O=C(Cc1ccccc1)N1CCC(CCOC(c2ccccc2)c2ccccc2)CC1` [Example 5, 4-[2-(Diphenylmethoxy)ethyl]-1-[(phenylmethyl)carbonyl]piperidine], the IC50 in data set [1] is over 1000 nM; in data set [2], 2160 ± 54 nM.
As to `CN(CCC1CCN(Cc2ccccc2)CC1)C(c1ccccc1)c1ccccc1` [Example 10, 4-[2-((Diphenylmethyl)-N-methylamino)ethyl]-1-(4-phenylmethyl)piperidine], the IC50 was 1660 ± 469 nM in data set [1] and 213 ± 3 nM in data set [2] (Table 1).
Regarding `Fc1ccc(C(NCC2CCN(CCc3ccccc3)CC2)c2ccc(F)cc2)cc1` [Example 12, 4-[(Bis(4-fluorophenyl)methylamino)methyl]-1-[2-(phenyl)ethyl]piperidine], the IC50 in data set [1] was found to be 1100 ± 246 nM; in data set [2], 65.3 ± 3.2 nM.
Turning to `CN(CC1CCN(Cc2ccc(F)cc2)CC1)CC(c1ccccc1)c1ccccc1` [Example 13], the IC50 is 2520 ± 230 nM in data set [1] and 94 ± 12.5 nM in data set [2] (Table 1).
As to `CC(NCCC1CCN(Cc2ccc(F)cc2)CC1)c1ccccc1` (centres unmarked) [Example 14, 4[2-[(1-(phenyl)ethyl)amino]ethyl]-1-[(4-fluorophenyl)methyl]piperidine], the results for the IC50 in data set [1] and in data set [2] (Table 1) were 963 ± 38.5 nM and 295 ± 40.9 nM, respectively.
